Earlier results as cited in US20190011434A1, “METHODS TO DETERMINE CANCER TREATMENT USING ROBOTIC HIGH-THROUGHPUT DRUG SENSITIVITY TESTING” (AntiCancer, Inc., priority 2017, published 2019).

How the values were obtained:
[1] = system: head and neck squamous cell carcinoma (HNSCC) tumor specimens; details: 41 evaluated tumors; cisplatin 15 microg/mL or 5-fluorouracil 40 microg/mL; sensitivity = inhibition rate greater than 30%
[2] = system: primary tumor and axillary lymph node metastasis from breast cancer patients; details: 30 patients; cutoff drug concentrations; 7 days incubation; p<0.05

O=c1[nH]cc(F)c(=O)[nH]1 [5-fluorouracil]
Resistance in the HDRA (share of cases) [1]: 32% | Chemosensitivity of lymph node metastases compared with primary tumor [2]: more resistant than the primary tumor

COc1cccc2c1C(=O)c1c(O)c3c(c(O)c1C2=O)C[C@@](O)(C(=O)CO)C[C@@H]3O[C@H]1C[C@H](N)[C@H](O)[C@H](C)O1 [DOX, doxorubicin]
Chemosensitivity of lymph node metastases compared with primary tumor [2]: more resistant than the primary tumor

CO[C@@]12[C@H](COC(N)=O)C3=C(C(=O)C(C)=C(N)C3=O)N1C[C@@H]1N[C@@H]12 [MMC, mitomycin C]
Chemosensitivity of lymph node metastases compared with primary tumor [2]: more resistant than the primary tumor

N.N.[Cl][Pt][Cl] [cisplatinum]
Resistance in the HDRA (share of cases) [1]: 32% | Chemosensitivity of lymph node metastases compared with primary tumor [2]: not
